Numbered stars: 1 amine (or outer) side, 2 acyl side, 3 side chain; on linkers, the order of the positions; unused ones are H or OH. Bridge positions count the residues as written; N and C are the ends. Square brackets hold non-standard residues; d marks the D form. Peptide text beside a SMILES is read from it. * marks the point of attachment. X1 = O=C(O)c1cc(NC(=S)*)ccc1-c1c2ccc(=O)cc-2oc2cc(O)ccc12; X4 = [N-]=[N+]=NCC(=O)Nc1ccc(N*)cc1; Dap = NC[C@H](N)C(=O)O; X3 = O=C(C[*:2])[*:1]; X2 = Oc1ccc(N*)cc1; βAla = NCCC(=O)O
How the values were obtained:
[1] = system: human IgG Fc; assay: Peptide-driven acetylation (labelling) of human IgG Fc, SDS-PAGE in-gel fluorescence / MALDI-TOF MS; assay type: biochemical; details: for yield of the labeled Fc: MS peak area after Glu-C digestion (F11: in-gel fluorescence, ImageJ)
Experimental: (§1) FIG. 2A-2C Kinetic details of the acetylation reaction and hydrolysis of F1. (FIG. 2A) Reactions at different peptide-to-IgG Fc ratios. Reactions were performed in PBS buffer (pH 7.4) at 37° C. for 1 h. Protein loading in each lane is 2 μg. (FIG. 2B) Reaction kinetics. Reaction condition: 4 μM IgG Fc, 24 μM F1, PBS buffer (pH 7.4), at 37° C. The reactions were quenched with 1% SDS at different time points. After conducting an SPAAC reaction with DBCO-PEG4-TAMRA, the reactions were denatured and resolved by SDS-PAGE. Product conversion was quantified based on band-shift in the SDS-PAGE image. (FIG. 2C) Hydrolysis of peptide ester (24 μM) monitored by HPLC in pH 7.4 PBS buffer at 37° C.
FIG. 27A-27B The study of IgG Fc acetylation reaction with different payloads. (FIG. 27A) A set of reactive peptides with different acyl groups tested for labeling efficiency. (FIG. 27B) The yields of IgG Fc labeled by peptides at 37° C. Reaction condition: 4 μM IgG Fc, 24 μM peptide, in PBS buffer (pH 7.4) for 2 h or in borate buffer (pH 8.5) for 15 h, respectively. […] The yields were quantified by MS analysis with in-solution Glu-C digestion of modified Fc or by in-gel fluorescent image (FIGS. 27A-27B, […]).
(§2) IgG or IgG Fc labelling reactions. Unless otherwise noted, the final concentrations of proteins were 4 μM and peptides were 24 μM. The conjugation reactions were performed in PBS buffer (pH 7.4, 137 mM NaCl, 2.7 mM KCl, 10 mM Na2HPO4, 1.8 mM KH2PO4) at 37° C. for 1 h and stopped by 1% SDS. For copper-free click chemistry, the protein-peptide reaction mixture was first incubated with 100 uM DBCO-TAMRA at room temperature for 2 h and then denatured in the presence of loading dye. After resolved by SDS-PAGE, the gel was first observed in the fluorescence channel, and then stained with Coomassie Brilliant Blue dye.
Characterization of IgG or IgG Fc modification by MALDI-TOF MS. To characterize Fc region, 5 μg protein sample was used. Firstly, Fc was treated in the presence of TCEP (20 mM) at 60° C. for 10 min. Then, the sample was acidified with TFA at a pH of <4. After prewetting, C4 ZipTip was equilibrated with water (0.1% TFA). Binding of Fc was realized by aspirating and dispensing sample 7 to 10 cycles. The tip was next washed 3 times and eluted by 5 μL 70% acetonitrile/water solution with 0.1% TFA. Now the sample was ready for MALDI-TOF MS analysis. For characterization of modified Fc region, the reaction was first quenched by acidification (For acid labile antibodies, the peptide f-F0 could be used to quench the reaction.). After coupling with DBCO-TAMRA, the sample was reduced. Then, the sample was desalted and concentrated by using the same procedure. […] Next the sample was purified by HPLC with C4 column, and peaks were collected and lyophilized. The sample was dissolved in 50% acetonitrile/water solution with 0.1% TFA and subjected to MALDI-TOF MS analysis.

[2] = target: T1, atezolizumab (Homo sapiens, UniProt P01857, D239E/L241M/N180A); assay: biochemical
T1 sequence (P01857 whole entry N180A/D239E/L241M, looked up, other chains not shown): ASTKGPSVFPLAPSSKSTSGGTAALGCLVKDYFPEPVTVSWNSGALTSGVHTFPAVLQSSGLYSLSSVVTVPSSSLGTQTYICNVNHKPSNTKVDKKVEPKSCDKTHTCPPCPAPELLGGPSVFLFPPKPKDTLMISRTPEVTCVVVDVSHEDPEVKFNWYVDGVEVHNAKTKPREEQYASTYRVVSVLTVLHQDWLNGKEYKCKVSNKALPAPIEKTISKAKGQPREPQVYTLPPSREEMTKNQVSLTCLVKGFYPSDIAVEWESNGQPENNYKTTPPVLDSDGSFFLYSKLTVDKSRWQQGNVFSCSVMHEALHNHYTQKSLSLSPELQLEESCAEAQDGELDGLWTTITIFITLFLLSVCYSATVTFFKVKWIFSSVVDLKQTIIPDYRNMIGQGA
Text: Ligand-induced fluorescence change was used to determine the Kd value. (FIG. 13A) Dose response curve. (FIG. 13B) Capillary scans. (FIG. 13C) MST traces.
Ligand-induced fluorescence change was used to determine the Kd value. (FIG. 14A) Dose response curve. (FIG. 14B) Capillary scans. (FIG. 14C) MST traces.
Ligand-induced fluorescence change was used to determine the Kd value. (FIG. 15A) Dose response curve. (FIG. 15B) Capillary scans. (FIG. 15C) MST traces.
Microscale thermophoresis (MST) binding experiments. […] The measurements were performed in phosphate buffered saline supplemented with 0.05% Tween-20 (PBS-T). […] The measurements were performed on a NanoTemper Technologies Monolith NT.115 instrument. The settings of MST power was medium and LED power was Auto-detect.

[3] = target: T1, atezolizumab; assay: Acetylation of atezolizumab by peptide F1, MALDI-TOF MS / SDS-PAGE; assay type: biochemical; set-up: purchased SelleckChem A2004; details: for heavy chain modified: 4 μM Atezo, 24 μM F1, PBS pH 7.4, 37° C., MALDI-TOF MS
Experimental: (FIG. 4A) Acetylation reaction monitored by SDS-PAGE and fluorescent scanning. Reaction condition: 4 μM Atezo, 24 μM F1, PBS buffer (pH 7.4), at 37° C. for 1 h. The reactions were quenched with 1% SDS and DBCO-TAMRA was added at room temperature for 1.5 h for SPAAC reaction before SDS-PAGE and in-gel fluorescent imaging. […] (FIG. 4C) In-gel digestion for MALDI-TOF MS analysis to identify the acetylation site. Modified Lys 248 was marked in red. L chain: light chain, H chain: heavy chain, M-H chain: modified heavy chain, Atezo: atezolizumab.
as §2
Characterization of IgG or IgG Fc modification by MALDI-TOF MS. To characterize Fc region, 5 μg protein sample was used. Firstly, Fc was treated in the presence of TCEP (20 mM) at 60° C. for 10 min. Then, the sample was acidified with TFA at a pH of <4. After prewetting, C4 ZipTip was equilibrated with water (0.1% TFA). Binding of Fc was realized by aspirating and dispensing sample 7 to 10 cycles. The tip was next washed 3 times and eluted by 5 μL 70% acetonitrile/water solution with 0.1% TFA. Now the sample was ready for MALDI-TOF MS analysis. For characterization of modified Fc region, the reaction was first quenched by acidification (For acid labile antibodies, the peptide f-F0 could be used to quench the reaction.). After coupling with DBCO-TAMRA, the sample was reduced. Then, the sample was desalted and concentrated by using the same procedure. […]

[4] = system: rabbit IgG; assay: Target selectivity of peptide-driven acetylation towards IgG from different species (rabbit); assay type: biochemical; details: 4 μM protein, 24 μM F1, PBS pH 7.4, 37° C., 1 h
Experimental: (§3) FIG. 10 Target selectivity of peptide-driven acetylation towards IgG from different species. Reaction condition: 4 μM protein, 24 μM F1, PBS buffer (pH 7.4), at 37° C. for 1 h. The reactions were quenched with 1% SDS and DBCO-TAMRA was added at room temperature for 1.5 h for copper-free click chemistry. […] Each lane contains […] of antibodies.
as §2

[5] = system: IgG Fc in a protein mixture of HeLa cell lysate; details: Fc-spiked HeLa cell lysate, RIPA lysis buffer pH 7.4, 37° C., 1 h, 6-fold excess of peptide
Experimental: Fc protein was spiked to a mixture of proteins from HeLa cell lysate, and the F1 peptide was added to the lysate to initiate acetylation reaction. […] Reactions were performed in pH 7.4 RIPA lysis buffer at 37° C. for 1 h with a 6-fold excess of peptides, followed by copper-free click chemistry with DBCO-TAMRA. Then the reactions were analyzed by denaturing SDS-PAGE and imaged using in-gel fluorescence scanning and Coomassie blue staining.

[6] = system: IgG Fc from mice; assay: Target selectivity of peptide-driven acetylation towards IgG from different species (mouse); assay type: biochemical; details: 4 μM protein, 24 μM F1, PBS pH 7.4, 37° C., 1 h
Experimental: as §3, §2

[7] = Hydrolysis of peptide ester monitored by HPLC; assay type: physicochemical
Experimental: as §1

[8] = 4 μM IgG Fc, 24 μM peptide, 37° C., PBS buffer (pH 7.4) for 2 h
[9] = 4 μM IgG Fc, 24 μM peptide, 37° C., borate buffer (pH 8.5) for 15 h

CC(=O)N[C@@H](CC(=O)O)C(=O)N[C@H]1CNC(=O)CSC[C@@H](C(=O)N[C@H](C(N)=O)[C@@H](C)O)NC(=O)[C@H](Cc2c[nH]c3ccccc23)NC(=O)[C@H](C(C)C)NC(=O)[C@H](CC(C)C)NC(=O)C(CCC(=O)Nc2cccc(OC(=O)CN=[N+]=[N-])c2)NC(=O)CNC(=O)[C@H](CC(C)C)NC(=O)[C@H](Cc2c[nH]cn2)NC(=O)[C@H](Cc2c[nH]c3ccccc23)NC(=O)[C@H](C)NC1=O (some centres unmarked) [F6]
acetylation yield compared with F1 ([1]; 3-aminophenol linker instead of 4-aminophenol): markedly decreased the acetylation yield

C#CCCC(=O)Oc1ccc(NC(=O)CC[C@@H]2NC(=O)CNC(=O)[C@H](CC(C)C)NC(=O)[C@H](Cc3c[nH]cn3)NC(=O)[C@H](Cc3c[nH]c4ccccc34)NC(=O)[C@H](C)NC(=O)[C@@H](NC(=O)[C@H](CC(=O)O)NC(C)=O)CNC(=O)CSC[C@@H](C(=O)N[C@H](C(N)=O)[C@@H](C)O)NC(=O)[C@H](Cc3c[nH]c4ccccc34)NC(=O)[C@H](C(C)C)NC(=O)[C@H](CC(C)C)NC2=O)cc1 [F8]
yield of the labeled Fc [1, 8]: about 17% | yield of the labeled Fc [1, 9]: 84%

CC(C)C[C@@H]1NC(=O)[C@H](Cc2c[nH]cn2)NC(=O)[C@H](Cc2c[nH]c3ccccc23)NC(=O)[C@H](C)NC(=O)[C@@H](NC(=O)[C@H](CC(=O)O)NC(=O)CCNC(=O)CNC(=S)Nc2ccc(-c3c4ccc(=O)cc-4oc4cc(O)ccc34)c(C(=O)O)c2)CNC(=O)CSC[C@@H](C(=O)N[C@H](C(N)=O)[C@@H](C)O)NC(=O)[C@H](Cc2c[nH]c3ccccc23)NC(=O)[C@H](C(C)C)NC(=O)[C@H](CC(C)C)NC(=O)[C@H](CCC(=O)Nc2ccc(O)cc2)NC(=O)CNC1=O [f-F4] (X1-G[βAla]D[Dap]AWHLGE(X2)LVWCT-NH2; linker 4-14 via X3)
Kd [2]: 1500 nM

CC(=O)N[C@@H](CC(=O)O)C(=O)N[C@H]1CNC(=O)CSC[C@@H](C(=O)N[C@H](C(N)=O)[C@@H](C)O)NC(=O)[C@H](Cc2c[nH]c3ccccc23)NC(=O)[C@H](C(C)C)NC(=O)[C@H](CC(C)C)NC(=O)[C@H](CCC(=O)Nc2ccc(OC(=O)CN=[N+]=[N-])cc2)NC(=O)CNC(=O)[C@H](CC(C)C)NC(=O)[C@H](Cc2c[nH]cn2)NC(=O)[C@H](Cc2c[nH]c3ccccc23)NC(=O)[C@H](C)NC1=O [F1]
time to 50% completion of the acetylation reaction ([1]; 4 μM IgG Fc, 24 μM F1, PBS buffer pH 7.4, 37° C.): less than 30 min | acetylation reaction conversion within 1 h ([1]; IgG Fc 2 μM to 20 μM, F1:IgG Fc ratio 6:1, PBS pH 7.4, 37° C.): > 50% | reactivity with IgG Fc by species ([1]; human, 4 μM protein, 24 μM F1, PBS pH 7.4, 37° C., 1 h): only reacted with human and rabbit IgG Fcs | chain selectivity of acetylation ([3]; 37° C. for 1 h): acetylated the heavy chain only | heavy chain modified ([3]; in 15 minutes): ~50% | heavy chain modified ([3]; in 1 h): ~80% | reactivity with IgG Fc by species [4]: only reacted with human and rabbit IgG Fcs | selectivity of acetylation in a complex protein mixture [5]: selectively acetylate IgG Fc in a protein mixture of HeLa cell lysate without an appreciable level of background reactions | reactivity with IgG Fc by species [6]: not the IgG Fc from mice | stability of peptide ([7]; basic condition (pH 8.5)): extremely unstable at basic condition | peptide ester lost by hydrolysis ([7]; in 1 h at pH 7.4, PBS, 37° C., 24 μM, absence of IgGs): about 70%

CC(C)C[C@@H]1NC(=O)[C@H](Cc2c[nH]cn2)NC(=O)[C@H](Cc2c[nH]c3ccccc23)NC(=O)[C@H](C)NC(=O)[C@@H](NC(=O)[C@H](CC(=O)O)NC(=O)CCNC(=O)CNC(=S)Nc2ccc(-c3c4ccc(=O)cc-4oc4cc(O)ccc34)c(C(=O)O)c2)CNC(=O)CSC[C@@H](C(=O)N[C@H](C(N)=O)[C@@H](C)O)NC(=O)[C@H](Cc2c[nH]c3ccccc23)NC(=O)[C@H](C(C)C)NC(=O)[C@H](CC(C)C)NC(=O)[C@H](CCC(=O)Nc2ccc(NC(=O)CN=[N+]=[N-])cc2)NC(=O)CNC1=O [f-F5] (X1-G[βAla]D[Dap]AWHLGE(X4)LVWCT-NH2; linker 4-14 via X3)
Kd [2]: 2000 nM

CC(=O)N[C@@H](CC(=O)O)C(=O)N[C@H]1CNC(=O)CSC[C@@H](C(=O)N[C@H](C(N)=O)[C@@H](C)O)NC(=O)[C@H](Cc2c[nH]c3ccccc23)NC(=O)[C@H](C(C)C)NC(=O)[C@H](CC(C)C)NC(=O)[C@H](CCC(=O)Nc2ccc(OC(=O)c3ccc(C(=O)c4ccccc4)cc3)cc2)NC(=O)CNC(=O)[C@H](CC(C)C)NC(=O)[C@H](Cc2c[nH]cn2)NC(=O)[C@H](Cc2c[nH]c3ccccc23)NC(=O)[C@H](C)NC1=O [F10]
yield of the labeled Fc [1, 8]: about 5% | mass shift of Fc after reaction (MALDI-TOF MS) ([1]; 4 μM IgG Fc, 24 μM peptide, 37° C., PBS pH 7.4 2 h or borate pH 8.5 15 h): No obvious mass shift was observed | yield of the labeled Fc [1, 9]: 26%

CC(=O)N[C@@H](CC(=O)O)C(=O)N[C@H]1CNC(=O)CSC[C@@H](C(=O)N[C@H](C(N)=O)[C@@H](C)O)NC(=O)[C@H](Cc2c[nH]c3ccccc23)NC(=O)[C@H](C(C)C)NC(=O)[C@H](CC(C)C)NC(=O)C(CCC(=O)Nc2ccc(OC(=O)CCCC[C@@H]3SC[C@@H]4NC(=O)N[C@@H]43)cc2)NC(=O)CNC(=O)[C@H](CC(C)C)NC(=O)[C@H](Cc2c[nH]cn2)NC(=O)[C@H](Cc2c[nH]c3ccccc23)NC(=O)[C@H](C)NC1=O (some centres unmarked) [F9]
yield of the labeled Fc [1, 8]: about 18% | yield of the labeled Fc [1, 9]: 73%

CC(=O)N[C@@H](CC(=O)O)C(=O)N[C@H]1CNC(=O)CSC[C@@H](C(=O)N[C@H](C(N)=O)[C@@H](C)O)NC(=O)[C@H](Cc2c[nH]c3ccccc23)NC(=O)[C@H](C(C)C)NC(=O)[C@H](CC(C)C)NC(=O)[C@H](CCC(=O)Nc2ccc(OC(C)=O)cc2)NC(=O)CNC(=O)[C@H](CC(C)C)NC(=O)[C@H](Cc2c[nH]cn2)NC(=O)[C@H](Cc2c[nH]c3ccccc23)NC(=O)[C@H](C)NC1=O [F7]
yield of the labeled Fc [1, 8]: about 41% | yield of the labeled Fc [1, 9]: 90%
